According to PubChem BioAssay (NCI):
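Growth conditions: 96-well plates. Treatment: test compound, 48 hours, 5 concentrations. Analysis: linear interpolation between bracketing concentrations; unreached endpoints set to highest concentration. GI50 = concentration required for 50% inhibition of growth. TGI denotes the concentration required for complete inhibition of growth.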

Columns and labels:
Experiment in all cases: inhibition of tumour cell growth, NCI panel, 48 h
HCT-116 colon = tested on: HCT-116 colon
HS 578T breast = tested on: HS 578T breast
MDA-MB-231 breast = tested on: MDA-MB-231 breast
OVCAR-5 ovarian = tested on: OVCAR-5 ovarian
RXF 393 renal = tested on: RXF 393 renal
SF-268 CNS = tested on: SF-268 CNS
SK-OV-3 ovarian = tested on: SK-OV-3 ovarian
SNB-19 CNS = tested on: SNB-19 CNS
SNB-75 CNS = tested on: SNB-75 CNS
UO-31 renal = tested on: UO-31 renal

Row | SMILES | GI50 (HCT-116 colon) | TGI (HCT-116 colon) | GI50 (HS 578T breast) | TGI (HS 578T breast) | GI50 (MDA-MB-231 breast) | TGI (MDA-MB-231 breast) | GI50 (OVCAR-5 ovarian) | TGI (OVCAR-5 ovarian) | GI50 (RXF 393 renal) | TGI (RXF 393 renal) | GI50 (SF-268 CNS) | TGI (SF-268 CNS) | GI50 (SK-OV-3 ovarian) | TGI (SK-OV-3 ovarian) | GI50 (SNB-19 CNS) | TGI (SNB-19 CNS) | GI50 (SNB-75 CNS) | TGI (SNB-75 CNS) | GI50 (UO-31 renal) | TGI (UO-31 renal)
1 | N=C(N)c1ccc(CS(=O)(=O)F)cc1 | > 100 µM | > 100 µM | > 100 µM | > 100 µM | > 100 µM | > 100 µM | > 100 µM | > 100 µM | > 100 µM | > 100 µM | > 100 µM | > 100 µM | > 100 µM | > 100 µM | > 100 µM | > 100 µM | > 100 µM | > 100 µM | > 100 µM | > 100 µM
2 | Nc1nc(=O)c2[nH]cnc2n1O | – | > 100 µM | – | > 100 µM | – | > 100 µM | – | > 100 µM | – | > 100 µM | – | > 100 µM | – | > 100 µM | – | > 100 µM | – | > 100 µM | – | > 100 µM
3 | CN(C)c1ccc(/C=N/NC(=O)CSc2nc3sc4c(c3c(=O)n2-c2ccccc2)CCCCC4)cc1 | 3.96 µM | > 100 µM | 3.85 µM | 40.5 µM | 2.89 µM | 18 µM | 6.55 µM | > 100 µM | 3.43 µM | 15.2 µM | 11.5 µM | > 100 µM | 11.3 µM | 51 µM | 6.66 µM | 80.9 µM | 2.68 µM | 14.6 µM | > 100 µM | > 100 µM
4 | C/C(=N\NC(=O)c1cccc(S(=O)(=O)N2CCN(C)CC2)c1)c1cc(Cl)ccc1O | 0.48 µM | > 76.2 µM | 4.54 µM | > 74.8 µM | 0.667 µM | > 100 µM | 1.86 µM | > 100 µM | 2.8 µM | 23.9 µM | 0.933 µM | > 63.8 µM | 0.938 µM | > 54.6 µM | 2.03 µM | > 100 µM | 0.648 µM | 32.3 µM | 0.184 µM | 12.6 µM
5 | CC/C=C\C[C@H](O)C/C=C1/C(=O)C=C[C@@H]1C/C=C\CCCC(=O)OCCS(=O)(=O)c1ccccc1 | 2.35 µM | 5.06 µM | 23.9 µM | > 100 µM | 5.34 µM | 20.7 µM | 12.4 µM | 29.5 µM | 2.75 µM | 6.47 µM | 4.37 µM | 22.9 µM | 6.38 µM | 27.7 µM | 5.06 µM | 19.4 µM | 17.2 µM | 88.8 µM | 2.37 µM | 6.31 µM
6 | COc1ccccc1CN=C1NC(=O)/C(=C/c2ccc3ncccc3c2)S1 | 3.1 µM | > 25 µM | 6.61 µM | > 24.1 µM | 11.2 µM | > 25 µM | 16.3 µM | > 25 µM | 8.75 µM | > 25 µM | 7.89 µM | > 25 µM | 6.08 µM | > 19.2 µM | 4.01 µM | > 25 µM | 3.9 µM | > 25 µM | 7.37 µM | > 21.7 µM
7 | CC(/C=C/C=C\C=C\C=C(/C)C(=O)NC(C)CO)=C\C(C)C(O)/C(C)=C/C(C)CCc1ccccc1 (stereo not given) | – | 19.4 µM | – | 52.8 µM | – | 45.2 µM | – | 31 µM | – | 26.6 µM | – | 28.4 µM | – | 64 µM | – | 35.8 µM | – | 26.7 µM | – | 27.3 µM
8 | Cc1ccc(C(=O)Nc2ccc(CN3CCN(C)CC3)c(C(F)(F)F)c2)cc1C#Cc1cnc(N)c2ccc(C#N)cc12 | 0.167 µM | 7.3 µM | 0.161 µM | > 23.9 µM | 0.23 µM | 2.02 µM | 5.85 µM | 16.4 µM | 0.0407 µM | 5.82 µM | 0.206 µM | 17.2 µM | 0.0981 µM | 12.8 µM | 3.2 µM | 19.9 µM | 0.0468 µM | 13.4 µM | 0.0224 µM | 2.26 µM
9 | COc1ccc(/C=C(/C(=O)N2CCN(c3ccc(C)cc3)CC2)c2cc(OC)c(OC)c(OC)c2)cc1N | 0.254 µM | > 32.9 µM | 0.291 µM | > 100 µM | 0.36 µM | > 100 µM | 0.715 µM | > 100 µM | 0.271 µM | > 100 µM | 0.43 µM | > 100 µM | 0.755 µM | > 100 µM | 0.426 µM | > 100 µM | 0.509 µM | > 100 µM | 0.242 µM | > 35.3 µM
10 | Nc1c(C(=O)c2cccc(C(O)(CO)CO)c2)cnn1-c1ccc(F)cc1 | > 25 µM | > 25 µM | > 25 µM | > 25 µM | > 25 µM | > 25 µM | > 25 µM | > 25 µM | > 25 µM | > 25 µM | > 25 µM | > 25 µM | > 25 µM | > 25 µM | > 25 µM | > 25 µM | > 25 µM | > 25 µM | > 25 µM | > 25 µM
11 | C/C(=N\N)C(CN1CCCCC1)C(c1ccccc1)c1c(O)c2ccccc2oc1=O (stereo not given) | – | > 100 µM | – | > 100 µM | – | > 100 µM | – | > 100 µM | – | > 100 µM | – | > 100 µM | – | > 100 µM | – | > 100 µM | – | > 100 µM | – | > 100 µM
12 | COc1ccc(C(=O)OC2C(OC3C(O)COC(O[C@H]4C[C@H]5[C@@H]6CC=C7C[C@@H](O)CC[C@]7(C)[C@H]6CC[C@]5(C)[C@H]4[C@H](C)C(=O)CCC(C)C)C3OC(=O)C(C)C)OCC(O)C2O)cc1 (stereo not given in full) | 0.0107 µM | 3.25 µM | 0.00343 µM | 0.0441 µM | 0.101 µM | 4.65 µM | 0.204 µM | 5.22 µM | < 0.00275 µM | 0.0158 µM | 0.0195 µM | 3.33 µM | 0.0127 µM | 1.52 µM | 0.0336 µM | 3.97 µM | 0.00698 µM | 4.9 µM | 0.0115 µM | 0.067 µM
13 | COc1ccc(-c2cc(=O)c3c(OC)c(O)c(OC)cc3o2)cc1 | – | > 100 µM | – | > 100 µM | – | > 100 µM | – | > 100 µM | – | > 100 µM | – | > 100 µM | – | > 100 µM | – | > 100 µM | – | > 100 µM | – | > 100 µM
14 | O=S1(=O)OCc2ccccc21 | – | > 100 µM | – | > 100 µM | – | > 100 µM | – | > 100 µM | – | > 100 µM | – | > 100 µM | – | > 100 µM | – | > 100 µM | – | > 100 µM | – | > 100 µM
15 | COc1cc(-c2nn(-c3ccc(NC(=O)Nc4ccc(Cl)c(C(F)(F)F)c4)cc3)cc2-c2ccncc2)ccc1Cl | 1.14 µM | 2.53 µM | 1.91 µM | 4.96 µM | 1.76 µM | 3.82 µM | 1.94 µM | 5.68 µM | 1.54 µM | 4.41 µM | 1.93 µM | 5.01 µM | 2.53 µM | 6.43 µM | 2.53 µM | 8.13 µM | 1.28 µM | 4.03 µM | 1.44 µM | 3.13 µM
16 | C=C(C)[C@@H]1CC[C@]2(C(=O)N3CCN(C)CC3)CC[C@]3(C)[C@H](CC[C@@H]4[C@@]5(C)C/C(=C/c6ccncc6)[C@H](O)C(C)(C)[C@@H]5CC[C@]43C)[C@@H]12 | 1.6 µM | 4.46 µM | 11.6 µM | > 100 µM | 4.46 µM | 19.3 µM | 6.04 µM | 26.8 µM | 2.89 µM | 10.5 µM | 9.05 µM | 57.6 µM | 12 µM | 96.5 µM | 8.68 µM | > 100 µM | 51.4 µM | > 100 µM | 5.37 µM | 21 µM
